The values below come from PMC5646234 (ChemPhotoChem, 2017).

In the test the target is T1, Saposin B (SapB) (Homo sapiens, UniProt P07602).
T1 sequence (P07602 195-273): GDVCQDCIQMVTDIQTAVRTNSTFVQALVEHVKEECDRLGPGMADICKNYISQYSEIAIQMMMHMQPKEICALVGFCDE
Kind of test: tyrosine fluorescence quenching titration. It counts as binding.

In general, Kd refers to a measure of binding affinity in units of concentration. Higher therefore signals lower affinity. `CC1=C(/C=C/C(C)=C/C=C/C(C)=C/c2cc(/C=C/C=C(C)/C=C/C3=C(C)CCCC3(C)C)cc[n+]2CCO)C(C)(C)CCC1` [A2E, 2-[(1E,3E,5E,7E)-2,5-dimethyl-8-(2,6,6-trimethyl-cyclohex-1-en-1-yl)octa-1,3,5,7-tetraen-1-yl]-1-(2-hydroxyethyl)-4-[(1E,3E,5E)-4-methyl-6-(2,6,6-trimethylcyclohex-1-en-1-yl)hexa-1,3,5-trien-1-yl]pyridinium] had a Kd of 25 µM.
